Read-outs that look alike come from different tables or passages of the source.

We go through 19 compounds from patent US11384060B2, “Amide compounds and use thereof” (ALPHALA CO., LTD., priority 2017, dated 2022).

Experiment [1] addresses T1, glucagon receptor (GCGR) overexpressed CHO-K1 cells or human primary hepatocytes (Homo sapiens, UniProt P47871).
T1 construct: expressed in transfected cells; host or cells: GCGR overexpressed CHO-K1 cells or human primary hepatocytes (endogenous receptor)
Put plainly: Glucagon cAMP inhibition assay (Cisbio cAMP Dynamic 2 HTRF). The format is cell-based. In a few lines:
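GCGR-overexpressing CHO-K1 cells or human primary hepatocytes in HBSS with 0.1% BSA and 800 nM IBMX, pre-incubated 30 min with serially diluted compounds (1% DMSO final), then stimulated 30 min at room temperature with glucagon at its EC50. cAMP measured by HTRF after 60 min lysis; IC50 by non-linear regression.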

A further experiment addresses T2, glucagon receptor (GCGR) (Homo sapiens, UniProt P47871).
T2 construct: expressed in transfected cells; host or cells: CHO-K1 cells overexpressing GCGR (membrane fractions)
Briefly: I125-glucagon binding assay (competition, GCGR membrane fractions). The method, boiled down: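 Membranes from CHO-K1 cells overexpressing GCGR, 7.5 μg/well in 50 mM Tris pH 7.4 with 0.5% BSA, were preincubated 5 min with serially diluted compounds, then given 0.0625 nM final I^125-glucagon for 30 min at 25° C. Bound label was filtered on PEI-coated GF/B and counted; IC50 by non-linear regression.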

Setting [2] is: inhibition of glucagon (EC50 concentration) induced cAMP production.
[3] abbreviates: competition with I125-glucagon 0.0625 nM, membrane fractions of GCGR overexpressed CHO-K1 cells.

T2 sequence (P47871 26-477): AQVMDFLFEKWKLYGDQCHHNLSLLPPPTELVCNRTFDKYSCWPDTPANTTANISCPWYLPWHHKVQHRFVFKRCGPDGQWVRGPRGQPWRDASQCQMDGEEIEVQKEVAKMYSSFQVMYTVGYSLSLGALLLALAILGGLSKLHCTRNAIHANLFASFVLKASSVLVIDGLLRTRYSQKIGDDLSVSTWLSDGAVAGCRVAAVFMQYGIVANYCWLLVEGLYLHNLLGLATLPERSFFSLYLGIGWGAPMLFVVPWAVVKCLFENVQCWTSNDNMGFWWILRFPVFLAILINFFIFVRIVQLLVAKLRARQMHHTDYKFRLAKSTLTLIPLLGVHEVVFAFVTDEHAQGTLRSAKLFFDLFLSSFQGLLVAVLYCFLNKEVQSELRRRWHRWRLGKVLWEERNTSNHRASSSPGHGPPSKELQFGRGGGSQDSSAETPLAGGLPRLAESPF
T1 sequence (P47871 26-477): as above

Regarding `CCCC[C@@H](Cc1noc(-c2ccc(C(C)(C)C)cc2)n1)Nc1ccc(C(=O)NCCC(=O)O)cc1` [Compound 21-1, (S)-3-(4-((1-(5-(4-(tert-butyl)phenyl)-1,2,4-oxadiazol-3-yl)hexan-2-yl)amino)benzamido)propanoic Acid], in experiment [1] (setting [2]), the “IC50 cAMP” value turned out to be 170.4 nM. The IC50 at glucagon receptor (GCGR) (setting [3]) stood at 0.803 µM.
For the compound `CC(C)C[C@H](Nc1ccc(C(=O)NCCC(=O)O)cc1)C(=O)Nc1ccc(-c2ccc(C(F)(F)F)cc2)cc1` [Compound 23-4, (S)-3-(4-((4-methyl-1-oxo-1-((4′-(trifluoromethyl)-[1,1′-biphenyl]-4-yl)amino)pentan-2-yl)amino)benzamido)propanoic Acid], in experiment [1], the “IC50 cAMP” value amounted to 3200 nM. For the same compound, the IC50 on glucagon receptor (GCGR) worked out at 0.269 µM.
For the compound `CC(C)C[C@@H](COc1cc(F)c(-c2ccc(C(F)(F)F)cc2)c(F)c1)Nc1ccc(C(=O)NCCC(=O)O)cn1` [Compound 9-4, (S)-3-(6-((1-((2,6-difluoro-4′-(trifluoromethyl)-[1,1′-biphenyl]-4-yl)oxy)-4-methylpentan-2-yl)amino)nicotinamido)propanoic Acid], the “IC50 cAMP” value in experiment [1] (setting [2]) is recorded as 2300 nM. Besides, on glucagon receptor (GCGR) (setting [3]), the IC50 stood at 1.67 µM.
`CC(C)C[C@@H](COc1ccc(-c2ccc(C(F)(F)F)cc2F)cn1)Nc1ccc(C(=O)NCCC(=O)O)cc1` [Compound 15-16, (S)-3-(4-((1-((5-(2-fluoro-4-(trifluoromethyl)phenyl)pyridin-2-yl)oxy)-4-methylpentan-2-yl)amino)benzamido)propanoic Acid]: the “IC50 cAMP” value in experiment [1] is reported as 999 nM. The compound also yielded an IC50 on glucagon receptor (GCGR) of 0.669 µM.
For `CC[C@H](C)[C@@H](COc1ccc(-c2nnc(C(C)(C)C)o2)cc1)Nc1ccc(C(=O)NCCC(=O)O)cc1` [Compound 1-45, 3-(4-(((2S,3S)-1-(4-(5-(tert-butyl)-1,3,4-oxadiazol-2-yl)phenoxy)-3-methylpentan-2-yl)amino)benzamido)propanoic Acid], the “IC50 cAMP” value in experiment [1] (setting [2]) came to 11981 nM. This compound had an IC50 at glucagon receptor (GCGR) (setting [3]) of 1.52 µM.
Regarding `CCOC(=O)CCNC(=O)c1ccc(N[C@H](Cc2ccc(-c3ccc(Cl)cc3Cl)cc2)C(=O)Nc2ccc(C(F)(F)F)cc2)cc1` [Compound 24-17, Ethyl (R)-3-(4-((3-(2′,4′-dichloro-[1,1′-biphenyl]-4-yl)-1-oxo-1-((4-(trifluoromethyl)phenyl)amino)propan-2-yl)amino)benzamido)propanoate], the “IC50 cAMP” value in experiment [1] stood at 167.1 nM. Also, the IC50 on glucagon receptor (GCGR) (uM) was above 30 µM.
As for `Cc1cc(C)c(-c2ccc(C[C@H](Nc3ccc(C(=O)NCCC(=O)O)cc3)C(=O)Nc3ccc(C(C)(C)C)cc3)cc2)c(C)c1` [Compound 23-25], the “IC50 cAMP” value in experiment [1] came out at 3100 nM. This compound registered an IC50 on glucagon receptor (GCGR) of 0.458 µM.
For `CC[C@H](C)[C@@H](COc1ccc(-c2cc3ccccc3o2)c(OC)c1)Nc1ccc(C(=O)NCCC(=O)O)cc1` [Compound 13-1, 3-(4-(((2S,3S)-1-(4-(benzofuran-2-yl)-3-methoxyphenoxy)-3-methylpentan-2-yl)amino)benzamido)propanoic Acid], the “IC50 cAMP” value in experiment [1] (setting [2]) was determined as 157 nM. Further, the IC50 at glucagon receptor (GCGR) (setting [3]) is 0.046 µM.
Take `O=C(NCc1nn[nH]n1)c1ccc(N[C@H](COc2ccc(-c3cc4ccccc4o3)cn2)c2ccccc2)cc1` [Compound 15-1, (S)—N-((2H-tetrazol-5-yl)methyl)-4-((2-((5-(benzofuran-2-yl)pyridin-2-yl)oxy)-1-phenylethyl)amino)benzamide]: in experiment [1], the “IC50 cAMP” value was found to be 7356 nM. This compound showed an IC50 on glucagon receptor (GCGR) of 0.388 µM.
Regarding `CC[C@H](C)[C@@H](COc1ccc(-c2nnc(-c3ccccc3)o2)cc1)Nc1ccc(C(=O)NCCC(=O)O)cn1` [Compound 4-5, 3-(6-(((2S,3S)-3-methyl-1-(4-(5-phenyl-1,3,4-oxadiazol-2-yl)phenoxy)pentan-2-yl)amino)nicotinamido)propanoic Acid], the “IC50 cAMP” value in experiment [1] (setting [2]) is 11200 nM. At glucagon receptor (GCGR) (setting [3]), this compound gave an IC50 of 0.708 µM.
Regarding `O=C(O)CCNC(=O)c1ccc(N[C@@H](Cc2ccccc2)C(=O)Nc2ccc(-c3cc4ccccc4o3)cc2)cc1` [Compound 23-8, (S)-3-(4-((1-((4-(benzofuran-2-yl)phenyl)amino)-1-oxo-3-phenylpropan-2-yl)amino)benzamido)propanoic Acid], in experiment [1], the “IC50 cAMP” value worked out at 2000 nM. For the same compound, on glucagon receptor (GCGR) (uM), the IC50 is above 10 µM.
With `CCC(C)[C@@H](COc1ccc(-c2nnc(C(F)(F)F)o2)cc1)Nc1ccc(C(=O)NCCC(=O)O)cc1` (some centres unmarked) [Compound 1-44, 3-(4-((3-methyl-1-(4-(5-(trifluoromethyl)-1,3,4-oxadiazol-2-yl)phenoxy)pentan-2-yl)amino)benzamido)propanoic Acid], the “IC50 cAMP” value in experiment [1] (setting [2]) was 10000 nM. The compound also returned an IC50 at glucagon receptor (GCGR) (setting [3]) of 0.388 µM.
Turning to `CCOC(=O)CCNC(=O)c1ccc(N[C@H](Cc2ccc(-c3ccc(C(F)(F)F)cc3)cc2)C(=O)Nc2ccc(OC(F)(F)F)cc2)cc1` [Compound 24-27, Ethyl (R)-3-(4-((1-oxo-1-((4-(trifluoromethoxy)phenyl)amino)-3-(4′-(trifluoromethyl)-[1,1′-biphenyl]-4-yl)propan-2-yl)amino)benzamido)propanoate], in experiment [1], the “IC50 cAMP” value was determined as 318.5 nM. Besides, the IC50 on glucagon receptor (GCGR) was 1.28 µM.
For `CC[C@H](C)[C@@H](COc1nnc(-c2ccc(C(F)(F)F)cc2F)o1)Nc1ccc(C(=O)NCCC(=O)OC)cc1` [Compound 22-20, Methyl 3-(4-(((2S,3S)-1-((5-(2-fluoro-4-(trifluoromethyl)phenyl)-1,3,4-oxadiazol-2-yl)oxy)-3-methylpentan-2-yl)amino)benzamido)propanoate], the “IC50 cAMP” value in experiment [1] is given as above 30000 nM. For the same compound, the half-maximal inhibitory concentration (IC50) on glucagon receptor (GCGR) was above 30 µM.
On to `CC(C)[C@@H](COc1ccc(-c2ccc(C(F)(F)F)cn2)cc1)Nc1ccc(C(=O)NCCC(=O)O)cc1` [Compound 1-24, (S)-3-(4-((3-methyl-1-(4-(5-(trifluoromethyl)pyridin-2-yl)phenoxy)butan-2-yl)amino)benzamido)propanoic Acid], for which, in experiment [1] (setting [2]), the “IC50 cAMP” value stood at 187.5 nM. Moreover, the IC50 on glucagon receptor (GCGR) (setting [3]) was determined as 0.134 µM.
As for `CC(C)(C)[C@@H](COc1ccc(-c2cc3ccccc3o2)cc1)Nc1ccc(C(=O)NCCC(=O)O)cc1` [Compound 1-40, (S)-3-(4-((1-(4-(benzofuran-2-yl)phenoxy)-3,3-dimethylbutan-2-yl)amino)benzamido)propanoic Acid], the “IC50 cAMP” value in experiment [1] (setting [2]) is 235.3 nM. The compound further returned an IC50 on glucagon receptor (GCGR) (setting [3]) of 0.195 µM.
As for `CC(C)[C@@H](COc1ccc(-c2cc3ccccc3o2)nn1)Nc1ccc(C(=O)NCCC(=O)O)cc1` [Compound 17-8, (S)-3-(4-((1-((6-(benzofuran-2-yl)pyridazin-3-yl)oxy)-3-methylbutan-2-yl)amino)benzamido)propanoic Acid], the “IC50 cAMP” value in experiment [1] (setting [2]) is 10741 nM. The IC50 on glucagon receptor (GCGR) (setting [3]) stood at 2.04 µM.
For `CCCC[C@@H](COc1ccc(-c2ccc(C(F)(F)F)cc2Cl)c(Cl)c1)Nc1ccc(C(=O)NCc2nnn[nH]2)cc1` [Compound 3-9, (S)—N-((1H-tetrazol-5-yl)methyl)-4-((1-((2,2′-dichloro-4′-(trifluoromethyl)-[1,1′-biphenyl]-4-yl)oxy)hexan-2-yl)amino)benzamide], the “IC50 cAMP” value in experiment [1] (setting [2]) stood at 528.1 nM. Moreover, at glucagon receptor (GCGR) (setting [3]), the IC50 came to 0.037 µM.
Take `CC[C@H](C)[C@@H](COc1ccc(-c2ccc(C(F)(F)F)cc2Cl)nn1)Nc1ccc(C(=O)NCCC(=O)O)cc1` [Compound 17-4, 3-(4-(((2S,3S)-1-((6-(2-chloro-4-(trifluoromethyl)phenyl)pyridazin-3-yl)oxy)-3-methylpentan-2-yl)amino)benzamido)propanoic Acid]: the “IC50 cAMP” value in experiment [1] (setting [2]) is on record as 1266 nM. Moreover, the IC50 on glucagon receptor (GCGR) (setting [3]) was 0.609 µM.
